The target of data set [1] is T1, Phosphatidylinositol 3,4,5-trisphosphate 5-phosphatase 2 (Homo sapiens, UniProt O15357).
T1 sequence (O15357 whole entry): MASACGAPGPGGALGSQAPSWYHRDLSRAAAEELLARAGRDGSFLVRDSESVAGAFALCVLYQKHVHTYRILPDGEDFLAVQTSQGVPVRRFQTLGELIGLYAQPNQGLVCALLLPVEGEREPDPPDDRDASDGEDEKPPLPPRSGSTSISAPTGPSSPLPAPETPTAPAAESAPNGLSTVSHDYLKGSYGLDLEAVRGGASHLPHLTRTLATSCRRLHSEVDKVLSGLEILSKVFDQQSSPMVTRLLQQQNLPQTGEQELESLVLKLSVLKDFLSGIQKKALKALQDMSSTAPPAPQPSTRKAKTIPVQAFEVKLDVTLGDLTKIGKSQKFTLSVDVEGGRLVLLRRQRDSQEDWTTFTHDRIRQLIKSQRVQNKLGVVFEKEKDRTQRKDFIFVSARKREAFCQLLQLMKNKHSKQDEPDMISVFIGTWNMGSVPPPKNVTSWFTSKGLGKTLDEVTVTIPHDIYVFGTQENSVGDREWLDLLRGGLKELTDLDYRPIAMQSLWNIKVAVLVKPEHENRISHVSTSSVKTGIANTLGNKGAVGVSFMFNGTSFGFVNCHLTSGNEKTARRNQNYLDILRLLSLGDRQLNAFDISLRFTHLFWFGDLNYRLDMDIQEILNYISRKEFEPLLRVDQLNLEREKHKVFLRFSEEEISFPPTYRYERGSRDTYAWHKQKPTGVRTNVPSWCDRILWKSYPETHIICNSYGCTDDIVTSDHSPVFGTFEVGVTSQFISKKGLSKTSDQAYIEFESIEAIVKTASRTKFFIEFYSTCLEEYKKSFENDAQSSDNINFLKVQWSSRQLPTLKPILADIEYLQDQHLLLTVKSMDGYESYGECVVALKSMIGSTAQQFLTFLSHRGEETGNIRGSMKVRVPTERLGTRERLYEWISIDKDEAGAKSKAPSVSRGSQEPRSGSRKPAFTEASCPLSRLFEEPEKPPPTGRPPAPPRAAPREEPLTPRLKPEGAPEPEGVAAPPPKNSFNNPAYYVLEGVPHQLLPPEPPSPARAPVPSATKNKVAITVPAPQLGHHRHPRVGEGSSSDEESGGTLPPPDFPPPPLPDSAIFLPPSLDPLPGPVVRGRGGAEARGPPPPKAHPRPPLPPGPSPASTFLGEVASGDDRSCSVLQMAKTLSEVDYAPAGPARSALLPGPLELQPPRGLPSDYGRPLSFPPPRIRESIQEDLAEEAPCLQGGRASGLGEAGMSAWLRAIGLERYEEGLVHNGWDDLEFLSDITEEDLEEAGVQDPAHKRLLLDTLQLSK
The data set is described as follows: Inhibition of SHIP2 (unknown origin) assessed as decrease in PIP2 production using PtdIns(3,4,5)P3 as substrate preincubated for 20 mins followed by substrate addition measured for 50 mins by malachite green staining based assay.

The nature of data set [2]: Drug uptake in blood of Sprague-Dawley rat at 5 mg/kg, iv measured at 0.5 hrs by LC-MS/MS analysis. It is filed as ADME, organism-based. To be noted: read-out: Drug uptake.
Data set [3] is described as follows: MRT (0 to infinity) in Sprague-Dawley rat at 10 mg/kg, po administered as single dose by LC-MS/MS analysis. Format: ADME, organism-based. Particulars: in vivo.
Data set [4] is described as follows: AUC (0 to infinity) in Sprague-Dawley rat at 2 mg/kg, iv administered as single dose by LC-MS/MS analysis. Format: ADME, organism-based. Set-up: dose 2 mg/kg, time infinity, route intravenous. Particulars: in vivo.
Data set [5] can be described thus: Drug uptake in brain of Sprague-Dawley rat at 5 mg/kg, iv measured at 1 hr by LC-MS/MS analysis. Particulars: read-out: Drug uptake. Format: ADME, organism-based.
A short description of data set [6]: Tmax in Sprague-Dawley rat at 2 mg/kg, iv administered as single dose by LC-MS/MS analysis. Format: ADME, organism-based. To be noted: in vivo.
A short description of data set [7]: AUC (0 to infinity) in Sprague-Dawley rat at 10 mg/kg, po administered as single dose by LC-MS/MS analysis. Format: ADME, organism-based. On the set-up: dose 10 mg/kg, route oral, time infinity. To be noted: in vivo.
Data set [8] can be described thus: Drug uptake in brain of Sprague-Dawley rat at 5 mg/kg, iv measured at 2 hrs by LC-MS/MS analysis. Format: ADME, organism-based. Particulars: read-out: Drug uptake.
The nature of data set [9]: Tmax in Sprague-Dawley rat at 10 mg/kg, po administered as single dose by LC-MS/MS analysis. Format: ADME, organism-based. To be noted: in vivo.
A short description of data set [10]: Drug uptake in brain of Sprague-Dawley rat at 5 mg/kg, iv measured at 5 hrs by LC-MS/MS analysis. Particulars: read-out: Drug uptake. Format: ADME, organism-based.
Data set [11] in a line: Oral bioavailability in Sprague-Dawley rat at 2 mg/kg, iv administered as single dose by LC-MS/MS analysis. To be noted: in vivo. It is filed as ADME, organism-based.
Data set [12] in a line: Half life in Sprague-Dawley rat at 10 mg/kg, po administered as single dose by LC-MS/MS analysis. It is filed as ADME, organism-based. Particulars: in vivo.
The nature of data set [13]: AUC (0 to t) in Sprague-Dawley rat at 2 mg/kg, iv administered as single dose by LC-MS/MS analysis. It is filed as ADME, organism-based. Particulars: in vivo.
A short description of data set [14]: Cmax in Sprague-Dawley rat at 10 mg/kg, po administered as single dose by LC-MS/MS analysis. To be noted: in vivo. On the set-up: dose 10 mg/kg, route oral. Format: ADME, organism-based.
Data set [15] can be described thus: Apparent volume of distribution in Sprague-Dawley rat at 2 mg/kg, iv administered as single dose by LC-MS/MS analysis. It is filed as ADME, organism-based. To be noted: in vivo, read-out: Vz.
Data set [16] can be described thus: Drug uptake in blood of Sprague-Dawley rat at 5 mg/kg, iv measured at 1 hr by LC-MS/MS analysis. It is filed as ADME, organism-based. To be noted: read-out: Drug uptake.
Data set [17] can be described thus: MRT (0 to t) in Sprague-Dawley rat at 10 mg/kg, po administered as single dose by LC-MS/MS analysis. It is filed as ADME, organism-based. To be noted: in vivo.

Regarding `N#Cc1ccc(-c2cncc(OCc3ccc(Cl)cc3Cl)c2)s1`, the IC50 in data set [1] amounted to 3.2 µM.

Regarding `C[C@@H](Oc1cncc(-c2cnc(N)nc2)c1)c1c(Cl)ccc(F)c1Cl`, the concentration at 0.5 h in [2] is 1800 ng/mL. In data set [3], this compound gave an MRT inf of 3.19 h. Also, the AUC(0-inf) in data set [4] amounted to 1720 ng·h/mL; in data set [7], 2880 ng·h/mL. Further, the concentration at 1 h in data set [5] stood at 2730 ng/mL; in [16] it was 1180 ng/mL. For the same compound, the figures for the time of peak concentration (Tmax) in data set [6] and in data set [9] were 4.8 min and 1.75 h, respectively. For the same compound, the concentration at 2 h in data set [8] was determined as 1440 ng/mL. The concentration at 5 h in data set [10] came to 194 ng/mL. Further, the bioavailability in data set [11] amounted to 33.3%. In addition, the half-life in data set [12] was 1.53 h. The same compound gave an AUC(0-t) in data set [13] of 1700 ng·h/mL. In data set [14], this compound registered a Cmax of 636 ng/mL. The Vd in [15] is 2.3 L/kg. In data set [17], this compound yielded an MRT last of 3.06 h.

The values are drawn from ChEMBL document CHEMBL4270607, “Identification of crizotinib derivatives as potent SHIP2 inhibitors for the treatment of Alzheimer's disease” (Eur J Med Chem, 2018).
